This is an account of results in patent US20050272677A1, “Delivery of a substance to a pre-determined site” (priority 2002, published 2005).

A short description of data set [1]: Gelation experiment (gel formation in solvents). It is filed as physicochemical. As for the experimental part: To obtain a gel or to thicken the solvent, the compound is mixed with the required solvent or a mixture of solvents in an amount between 0.01 and 50 wt. %, based on the weight of the composition. Typically, the dissolution of the components will be performed by heating (in some cases it may be helpful to homogenize the components, e.g., vortex) them together at temperatures of 20° C. to 200° C., preferably 50° C. to 150° C. Cooling these hot solutions to a preferred temperature in the range of −20° C. to 100° C., preferably 4° C. to 100° C. affords the gel or thickened solvent. […] In an alternative embodiment, the gelling agent is first dissolved in a polar or apolar solvent followed by the addition of another solvent or solvent mixture, thereby causing gelation to take place.
It will be understood that the use of the present gelling agents or thickeners to prepare a gel or to thicken a composition is also encompassed by the invention. As is well-known, gelling behavior of compounds or compositions is highly unpredictable. […] Preferably, the gelling phenomenon is thermoreversible.
In a typical gelation experiment, a carefully weighed amount of the dithienylcyclopentene derivative under investigation and 1 ml of the solvent are placed in a test tube, which is sealed and then heated until the compound is dissolved. The solution is allowed to cool to room temperature. […] The gelation process could be followed by UV-vis and CD spectroscopy as depicted in FIG. 58. At low concentrations (0.35 mM), compound D is dissolved in toluene. […] Increasing the concentration to 1.8 mM causes gelation of the solvent, which is accompanied by a change of the UV-visible spectrum, together with the appearance of a strong CD signal at 323 nm (FIG. 58, panels (a) and (c)). Similar changes in the UV-vis and CD spectrum are observed upon gelation of the 1.8 mM solution of D in toluene by cooling to a temperature below the sol-gel phase transition (from here on, referred to as gel(o)). From a plot of the increase of the CD signal versus the temperature, the sol-gel phase transition temperature of gel(o) was determined to be 29° C. for a 1.8 mM solution of D in toluene.

Data set [2] can be described thus: pH as stimulus for gel-to-sol and sol-to-gel transitions. It is filed as physicochemical. From the text: Addition of base to a gel of 1 led to a decrease in melting temperature of the gel. Above pH>4.06, gelation was no longer observed (reversible process; see FIG. 50).
Compound 15 can gelate water and undergoes a sol-to-gel transition around pH=4.93 at room temperature (for a 0.5 wt % gel).

A short description of data set [3]: In vivo delivery of luciferase DNA complexed with Sunfish amphiphiles. Set-up: species or system mouse. Conditions: for gene expression (Luciferase) after intravenous injection of complexed DNA: 24 hours, efficiency order SF-46>SF-36>SF-6>SF-30>SF-63. As for the experimental part:
Sunfish (SF) amphiphiles were tested and compared to DOTAP, a commercially available amphiphile (Avanti Polar Lipids). The used plasmid DNA codes for Luciferase, which is expressed upon transfection. Luciferase activity represents the efficiency of transfection. Liposomes were prepared by drying the Sunfish amphiphiles or DOTAP in glass tubes under a nitrogen flow followed by being under vacuum for one hour. The lipid film was resuspended in 20% sucrose by mixing and warming up for five minutes to 60° C. in a water bath. The liposomal suspension was then sonicated for three minutes. For lipoplexes formation, plasmid DNA (30 μg/mouse) diluted in 20% sucrose was added to the liposomes (450 nmol/mouse) under mixing. The lipoplexes were allowed to rest at room temperature for […] and were intravenously injected (150 μl) in male BALB/c mice. Organs (lungs, heart, liver, spleen and kidneys) were collected 24 hours after injection for analysis. Luciferase activity was measured in homogenates of the different organs and related to a standard curve obtained with purified recombinant Luciferase.

Data set [4] is described as follows: Gelation in the presence of surfactants and polymeric micelles. It counts as physicochemical. Set-up: key: G = gel; C = crystalline; G^a: ^a= not stable.
Assay in data set [5]: as above
It counts as physicochemical. Set-up: key: g = gel; i = insoluble; p = precipitate; sol = soluble.

Like-named read-outs stand apart in the source and are kept apart here.

For `COC(=O)[C@H](CCSC)NC(=O)[C@H]1C[C@@H](C(=O)N[C@@H](CCSC)C(=O)OC)C[C@@H](C(=O)N[C@@H](CCSC)C(=O)OC)C1` [9a, CHexAmMetOMe], the solvents gelated result in data set [1] was “both organic solvents and water”. In addition, the “effect of sufficient amounts of base on the gel” value (“effect” for short) in data set [2] was “causes dissolution of these gels”.

For the molecule `CCCCCCCC/C=C\CCCCCCCC[n+]1ccc(CCCCCCCCCCCCC)cc1.[Cl-]` [SF-30, 1-(9′-cis-octadecenyl)-4-tridecyl-pyridinium Chloride], the “gene expression (Luciferase) after intravenous injection of complexed DNA” value (“gene expression (Luciferase)” for short) in data set [3] is given as “resulted in gene expression in the lungs”.

Take `CCCCCCCC/C=C\CCCCCCCCCc1cc[n+](CCCCCCCCCCCCCCCCCC)cc1` [SF-46, 1-stearyl-4-(10′-cis-nonadecenyl)-pyridinium Chloride]: in data set [3] (24 hours after i.v. injection), the “Luciferase activity in the lungs compared to DOTAP” value is “five times higher”. The “gene expression (Luciferase)” value in data set [3] is reported as “resulted in gene expression in the lungs”.

Take `CCCCCCCCCCCCCCCC[n+]1ccc(CCCCCCCCCCCCC)cc1.[Cl-]` [SF-36, 1-hexadecyl-4-tridecyl-pyridinium Chloride]: the “gene expression (Luciferase)” value in data set [3] is listed as “resulted in gene expression in the lungs”.

In the case of `CSCC[C@H](NC(=O)[C@H]1C[C@@H](C(=O)N[C@@H](CCSC)C(=O)NCCc2c[nH]cn2)C[C@@H](C(=O)N[C@@H](CCSC)C(=O)NCCc2c[nH]cn2)C1)C(=O)NCCc1c[nH]cn1` [gelator 15, CHexAmMetHista], the solvents gelated result in data set [1] (listed as 15) is “water”; in data set [1] (listed as CHex-Am-Met-Hista), “water and lower alcohols”. Besides, the “pH of sol-to-gel transition” value in data set [2] is roughly 4.93.

For the molecule CHexAmAspOMe [gelator 8], in data set [2], the “effect” value was “causes dissolution of these gels”.

On to CHexAmMetAmCH2Pyr [gelator 6], for which the solvents gelated entry in data set [1] is on record as “water:alcohol mixtures (1:1)”. Moreover, the state result was “soluble” in data set [1] (DMSO); “soluble” in data set [1] (EtOH); “gel” in data set [1] (H2O/EtOH (1:1), weight % 1.0, 0.5, 0.25); “gel” in data set [1] (H2O/EtOH (2:1), weight % 0.16); “gel (turbid)” in data set [1] (H2O/EtOH (4:1), weight % 1.0, 0.5); “gel” in data set [1] (H2O/MeOH (1:1), weight % 0.5, 0.25). Moreover, the state result is listed as “gel (turbid)” in data set [1] (H2O/MeOH (4:1), weight % 1.0, 0.5); “insoluble” in data set [1] (H2O, weight % 0.05); “soluble” in data set [1] (MeOH). Further, the “pH of sol-to-gel transition” value in data set [2] (room temperature, 0.5 wt % in MeOH:H2O=1:1) is given as roughly 4.47.

On to `O=C(NCCOCCO)[C@H](Cc1ccccc1)NC(=O)[C@H]1C[C@@H](C(=O)N[C@@H](Cc2ccccc2)C(=O)NCCOCCO)C[C@@H](C(=O)N[C@@H](Cc2ccccc2)C(=O)NCCOCCO)C1` [gelator 4, CHexAmPheNHCH2CH2OCH2CH2OH], for which the solvents gelated result in data set [1] was “water and lower alcohols”. Further, the Gelation properties result in data set [4] (Nonionic (Lactose der.) < CMC), in data set [4] (Nonionic (Lactose der.) > CMC), in data set [4] (anionic (SDS) < CMC), in data set [4] (anionic (SDS) > CMC), in data set [4] (cationic (CTAB) < CMC) and in data set [4] (cationic (CTAB) > CMC) was “G” throughout. For the same molecule, the Gelation properties entry in data set [5] (Pluronic P 105, 5 mg · ml^−1) is on record as “p”; in data set [5] (Pluronic P 105, 100 mg · ml^−1) it was “p”.

Turning to CHexAmPheGlyOH [gelator 3], the “effect” value in data set [2] is recorded as “causes dissolution of these gels”.

As for `CCCCCCCC/C=C\CCCCCCCCCc1cc[n+](CCCCCCCC/C=C\CCCCCCCC)cc1.[Cl-]` [SF-6, 1-(9′-cis-octadecenyl)-4-(10″-cis-nonadecenyl)pyridinium Chloride], in data set [3], the “gene expression (Luciferase)” value was “resulted in gene expression in the lungs”.
